Data on 16 molecules can be found in US11753410B2, “Hormone receptor modulators for treating metabolic mutagenic and fibrotic conditions and disorders” (priority 2017, dated 2023).

Assay [1] has as its target T1, ligand binding domain of human FXR (Homo sapiens, UniProt Q96RI1).
T1 construct: purchased Thermofisher (LanthaScreen) PV4833
T1 sequence (Q96RI1 262-486 limits assumed): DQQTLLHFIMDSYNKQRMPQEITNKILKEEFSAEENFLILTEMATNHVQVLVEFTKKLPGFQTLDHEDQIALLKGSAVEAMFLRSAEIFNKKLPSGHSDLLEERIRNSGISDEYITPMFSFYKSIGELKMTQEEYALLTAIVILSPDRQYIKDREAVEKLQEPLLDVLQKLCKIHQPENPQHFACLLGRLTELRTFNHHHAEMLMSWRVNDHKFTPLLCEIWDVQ
The experiment in a line: biochemical. The note with it: for Emax: extent of activation relative to GW4064, read-out: Ligand Binding % Efficacy; for EC50: −log EC50, concentration required to produce 50% activation, FRET 520 nm/495 nm, 1 hour at room temperature, read-out: Ligand Binding pEC50 (converted). The procedure:
The affinity of FXR ligands for the ligand binding domain of FXR was determined using a commercially available human FXR ligand binding assay (LanthaScreen, Thermofisher Cat #PV4833). […] Binding of FXR ligands to the FXR ligand binding domain promotes binding of the fluorescein-labelled SRC2-2 peptide. This causes a FRET signal between the terbium-labelled anti-GST antibody and the fluorescein-labelled SRC peptide which are both bound to the FXR ligand binding domain.
Test compounds are dissolved in DMSO and a 3-fold serial dilution series is generated, then further diluted into assay buffer. The compounds are mixed with 5 nM GST-tagged FXR ligand binding domain, 5 nM Tb-labelled anti-GST antibody and 500 nM fluorescein-labelled SRC2-2 peptide in a pH7.4 buffer. The reaction is incubated at room temperature for 1 hour, then the FRET signal is measured as the ratio of the 520 nm/495 nm emission following excitation at 340 nm. The change in FRET signal is plotted against the test article concentration and fit to a 3-parameter logistical equation.

Assay [2] deals with T2, human Farnesoid X receptor ligand-binding domain/Gal4 DNA binding domain chimera (Homo sapiens, UniProt Q96RI1).
T2 construct: host or cells: FXR-UAS-bla HEK 293T (CellSensor UAS-bla HEK 293T)
T2 sequence (Q96RI1 262-486 limits assumed): T1 sequence (Q96RI1 262-486 limits assumed)
The experiment in a line: Cell-based assay of FXR activation (FXR-UAS-bla HEK 293T beta-lactamase reporter). The note with it: for Emax: HEK-293T, read-out: Cellular % Efficacy. The method, then: FXR activation was measured using a cell line and procedure obtained from Life Technologies (Cat #K1691). […] Activation of FXR by bound ligands results in transcriptional activation of the beta-lactamase reporter gene, which is detected via assay of beta-lactamase activity.
Cells are harvested and diluted into assay medium containing phenol red-free DMEM supplemented with 2% Charcoal-stripped FBS, pyruvate, non-essential amino acids. Cells are then transferred to a 384 well assay plate. Test compounds are dissolved in DMSO and a 3-fold serial dilution series is generated, then further diluted into assay medium. Compounds in assay medium are added to cells in the 384 well plate and allowed to incubate 16 h at 37 C in the presence of 5% CO2.
A FRET-based […] (CCF4) is loaded into cells as its acetomethoxy ester. Intracellular esterases liberate free CCF4, a cephalosporin core linking 7-hydroxycoumarin to fluorescein. In the presence of beta-lactamase activity produced in the presence of FXR agonists, cleavage of CCF4 spatially separates the two dyes and disrupts FRET, so that exciting the coumarin at 409 nm now produces a blue fluorescence signal at 447 nm. The change in FRET signal is plotted against the test compound concentration and fit to a 3-parameter logistical equation.

Take `O=C(O)c1ccc(N2C[C@@H]3C[C@H]2C[C@H]3OCc2c(C3CC3)nnn2-c2c(Cl)cccc2Cl)cc1F` [Compound I-53, 4-[(1S,4S,5R)-5-{[4-cyclopropyl-1-(2,6-dichlorophenyl)-1H-1,2,3-triazol-5-yl]methoxy}-2-azabicyclo[2.2.1]heptan-2-yl]-2-fluorobenzoic acid]: the Emax in assay [1] is 170%; in assay [2], 92%. The EC50 in assay [1] was 6.31 nM; in assay [2], 3.98 nM.
Turning to `O=C(O)c1cc([C@H]2CCOC2)c2nc(N3C[C@@H]4C[C@H]3C[C@H]4OCc3c(-c4c(Cl)cccc4Cl)cnn3C3CC3)sc2c1` (single isomer, unassigned) [Compound I-51], the results for the Emax in assay [1] and in assay [2] were 96% and 100%, respectively. Besides, the EC50 is 251 nM in assay [1] and 158 nM in assay [2].
Consider `O=C(O)c1ccc(N2C[C@@H]3C[C@H]2C[C@H]3OCc2c(-c3c(Cl)cccc3Cl)nnn2C2CC2)cc1` [Compound I-70, 4-[(1S,4S,5R)-5-{[1-cyclopropyl-4-(2,6-dichlorophenyl)-1H-1,2,3-triazol-5-yl]methoxy}-2-azabicyclo[2.2.1]heptan-2-yl]benzoic acid], for which, in assay [1], the Emax was 155% and the EC50 is 63.1 nM. Moreover, in assay [2], the EC50 is 39.8 nM and the Emax came to 106%.
The matching figures for `O=C(O)CCc1ccc(N2C[C@@H]3C[C@H]2C[C@H]3OCc2c(C3CC3)cnn2-c2c(Cl)cccc2Cl)c(F)c1` [Compound I-33, 3-{4-[(1S,4S,5R)-5-{[4-cyclopropyl-1-(2,6-dichlorophenyl)-1H-pyrazol-5-yl]methoxy}-2-azabicyclo[2.2.1]heptan-2-yl]-3-fluorophenyl}propanoic acid]: 132%, 39.8 nM, 3.98 nM and 99%.
The matching figures for `O=C(NS(=O)(=O)CC1CCOC1)c1ccc(N2C[C@@H]3C[C@H]2C[C@H]3OCc2c(C3CC3)cnn2-c2c(Cl)cccc2Cl)cc1` (stereo partly drawn) [Compound I-24, 4-((1S,4S,5R)-5-((4-cyclopropyl-1-(2,6-dichlorophenyl)-1H-pyrazol-5-yl)methoxy)-2-azabicyclo[2.2.1]heptan-2-yl)-N-(((tetrahydrofuran-3-yl)methyl)sulfonyl)benzamide]: 164%, 3.16 nM, 2.51 nM and 107%.
The matching figures for `O=C(O)c1ccc(N2C[C@@H]3C[C@H]2C[C@H]3OCc2c(C3CC3)cnn2-c2c(Cl)cccc2Cl)cc1` [Compound I-1, 4-[(1S,4S,5R)-5-{[4-cyclopropyl-1-(2,6-dichlorophenyl)-1H-pyrazol-5-yl]methoxy}-2-azabicyclo[2.2.1]heptan-2-yl]benzoic acid]: 121%, 6.31 nM, 1.58 nM and 110%.
On to `O=C(O)c1ccc(N2C[C@@H]3C[C@H]2C[C@H]3OCc2c(C3CC3)cnn2-c2c(F)cccc2F)cc1F` [Compound I-10, 4-[(1S,4S,5R)-5-{[4-cyclopropyl-1-(2,6-difluorophenyl)-1H-pyrazol-5-yl]methoxy}-2-azabicyclo[2.2.1]heptan-2-yl]-2-fluorobenzoic acid], for which, in assay [1], the Emax came out at 164% and the EC50 was 158 nM. In assay [2], the EC50 was 31.6 nM and the Emax was determined as 118%.
Turning to `O=C(O)c1ccc(N2C[C@@H]3C[C@H]2C[C@H]3OCc2c(-c3c(Cl)cccc3Cl)cnn2C2CC2)cc1F` [Compound I-42, 4-[(1S,4S,5R)-5-{[1-cyclopropyl-4-(2,6-dichlorophenyl)-1H-pyrazol-5-yl]methoxy}-2-azabicyclo[2.2.1]heptan-2-yl]-2-fluorobenzoic acid], in assay [1], the Emax was 102% and the EC50 is 251 nM. In addition, in assay [2], the EC50 was 398 nM and the Emax was determined as 110%.
Consider `O=C(O)c1cc(O[C@H]2CCOC2)c2nc(N3C[C@@H]4C[C@H]3C[C@H]4OCc3c(C4CC4)nnn3-c3c(Cl)cccc3Cl)sc2c1` [Compound I-61, 2-[(1S,4S,5R)-5-{[4-cyclopropyl-1-(2,6-dichlorophenyl)-1H-1,2,3-triazol-5-yl]methoxy}-2-azabicyclo[2.2.1]heptan-2-yl]-4-[(3S)-oxolan-3-yloxy]-1,3-benzothiazole-6-carboxylic acid], for which, in assay [1], the Emax is 158% and the EC50 was 3.98 nM. In assay [2], the EC50 was 25.1 nM and the Emax was found to be 107%.
The matching figures for `O=C(O)c1cc(O[C@@H]2CCOC2)c2nc(N3C[C@@H]4C[C@H]3C[C@H]4OCc3c(C4CC4)nnn3-c3c(Cl)cccc3Cl)sc2c1` [Compound I-62, 2-[(1S,4S,5R)-5-{[4-cyclopropyl-1-(2,6-dichlorophenyl)-1H-1,2,3-triazol-5-yl]methoxy}-2-azabicyclo[2.2.1]heptan-2-yl]-4-[(3R)-oxolan-3-yloxy]-1,3-benzothiazole-6-carboxylic acid]: 158%, 3.98 nM, 25.1 nM and 106%.
The like results for `O=C(O)CCc1ccc(N2C[C@@H]3C[C@H]2C[C@H]3OCc2c(C3CC3)nnn2-c2c(Cl)cccc2Cl)cc1F` [Compound I-55, 3-{4-[(1S,4S,5R)-5-{[4-cyclopropyl-1-(2,6-dichlorophenyl)-1H-1,2,3-triazol-5-yl]methoxy}-2-azabicyclo[2.2.1]heptan-2-yl]-2-fluorophenyl}propanoic acid] were, in that order, 147%, 63.1 nM, 15.8 nM and 91%.
The matching figures for `O=C(O)CCc1ccc(N2C[C@@H]3C[C@H]2C[C@H]3OCc2c(C3CC3)cnn2-c2c(Cl)cccc2Cl)cc1F` [Compound I-34, 3-{4-[(1S,4S,5R)-5-{[4-cyclopropyl-1-(2,6-dichlorophenyl)-1H-pyrazol-5-yl]methoxy}-2-azabicyclo[2.2.1]heptan-2-yl]-2-fluorophenyl}propanoic acid]: 144%, 100 nM, 10 nM and 98%.
In the case of `O=C(O)c1cc([C@@H]2CCOC2)c2nc(N3C[C@@H]4C[C@H]3C[C@H]4OCc3c(-c4c(Cl)cccc4Cl)cnn3C3CC3)sc2c1` (single isomer, unassigned) [Compound I-50], in assay [1], the Emax turned out to be 78% and the EC50 was 100 nM. For the same molecule, in assay [2], the EC50 is 100 nM and the Emax was 100%.
`O=C(O)c1cc(C2CCC2)c2nc(N3C[C@@H]4C[C@H]3C[C@H]4OCc3c(-c4c(Cl)cccc4Cl)nnn3C3CC3)sc2c1` [Compound I-68, 4-cyclobutyl-2-[(1S,4S,5R)-5-{[1-cyclopropyl-4-(2,6-dichlorophenyl)-1H-1,2,3-triazol-5-yl]methoxy}-2-azabicyclo[2.2.1]heptan-2-yl]-1,3-benzothiazole-6-carboxylic acid]: in assay [1], the Emax worked out at 178% and the EC50 is 3.98 nM. Also, in assay [2], the EC50 is 1.58 nM and the Emax came to 106%.
`O=C(O)c1ccc(N2C[C@@H]3C[C@H]2C[C@H]3OCc2c(C3CC3)nnn2-c2c(Cl)cccc2Cl)cc1` [Compound I-52, 4-[(1S,4S,5R)-5-{[4-cyclopropyl-1-(2,6-dichlorophenyl)-1H-1,2,3-triazol-5-yl]methoxy}-2-azabicyclo[2.2.1]heptan-2-yl]benzoic acid]: in assay [1], the Emax came to 140% and the EC50 is 6.31 nM. Besides, in assay [2], the EC50 was 3.98 nM and the Emax amounted to 106%.
As to `O=C(O)c1cc([C@H]2CCOC2)c2nc(N3C[C@@H]4C[C@H]3C[C@H]4OCc3c(C4CC4)nnn3-c3c(Cl)cccc3Cl)sc2c1` (single isomer, unassigned) [Compound I-58], in assay [1], the Emax was 145% and the EC50 is 2 nM. In addition, in assay [2], the EC50 is 1 nM and the Emax amounted to 102%.
